The text below walks through data of US9795139B2, “Molecules having pesticidal utility, and intermediates, compositions, and processes, related thereto” (priority 2015, dated 2017).

Like-named read-outs stand apart in the source and are kept apart here.

Common to all, as to type: in vivo
For series [1], the system named is Beet Armyworm (Spodoptera exigua, LAPHEG). The series is described as follows: Bioassay on Beet Armyworm (BAW), 128-well diet tray assay. To be noted: 168 h, read-out: BAW % Control (or Mortality) rating. Here is the method: (§1) Certain molecules disclosed in this document were tested against BAW and CL using procedures described in the following examples. In the reporting of the results, the “BAW & CL Rating Table” was used (See Table Section).
Bioassays on BAW were conducted using a 128-well diet tray assay. One to five second instar BAW larvae were placed in each well (3 mL) of the diet tray that had been previously filled with approximately 1.5 mL of artificial diet to which 50 μg/cm^2 of the test molecule (dissolved in 50 μL of 90:10 acetone-water mixture) had been applied (to each of eight wells) and then allowed to dry. Trays were covered with a clear self-adhesive cover, vented to allow gas exchange, and held at 25° C., 14:10 light-dark for five to seven days. Percent mortality was recorded for the larvae in each well; activity in the eight wells was then averaged. The results are indicated in the table entitled “Table ABC: Biological Results” (See Table Section).

Series [2] relates to Cabbage Looper (Trichoplusia ni, TRIPNI). The series is described as follows: Bioassay on Cabbage Looper (CL), 128-well diet tray assay. Particulars: 168 h, read-out: CL % Control (or Mortality) rating. On the procedure: as §1
Bioassays on CL were conducted using a 128-well diet tray assay. one to five second instar CL larvae were placed in each well (3 mL) of the diet tray that had been previously filled with 1 mL of artificial diet to which 50 μg/cm^2 of the test molecule (dissolved in 50 μL of 90:10 acetone-water mixture) had been applied (to each of eight wells) and then allowed to dry. Trays were covered with a clear self-adhesive cover, vented to allow gas exchange, and held at 25° C., 14:10 light-dark for five to seven days. Percent mortality was recorded for the larvae in each well; activity in the eight wells was then averaged. The results are indicated in the table entitled “Table ABC: Biological Results” (See Table Section).

The test system of series [3] is Yellow Fever Mosquito (Aedes aegypti, AEDSAE). Particulars: about 1 day-old larvae, 96-well plate from 4000 ppm DMSO master, 3 days at room temperature. On the procedure:
Certain molecules disclosed in this document were tested against YFM using procedures described in the following paragraph. In the reporting of the results, the “GPA & YFM Rating Table” was used (See Table Section).
Master plates containing 400 μg of a molecule dissolved in 100 μL of dimethyl sulfoxide (DMSO) (equivalent to a 4000 ppm solution) are used. A master plate of assembled molecules contains 15 μL per well. To this plate, 135 μL of a 90:10 water/acetone mixture is added to each well. A robot is programmed to dispense 15 μL aspirations from the master plate into an empty 96-well shallow plate (“daughter” plate). There are 6 reps (“daughter” plates) created per master. The created “daughter” plates are then immediately infested with YFM larvae.
The day before plates are to be treated, mosquito eggs are placed in Millipore water containing liver powder to begin hatching (4 g. into 400 mL). After the “daughter” plates are created using the robot, they are infested with 220 μL of the liver powder/larval mosquito mixture (about 1 day-old larvae). After plates are infested with mosquito larvae, a non-evaporative lid is used to cover the plate to reduce drying. Plates are held at room temperature for 3 days prior to grading. After 3 days, each well is observed and scored based on mortality. The results are indicated in the table entitled “Table ABC: Biological Results” (See Table Section).

The mark [4] stands for this setting: 50 μg/cm^2 on artificial diet, second instar larvae, 25° C., five to seven days, average of eight wells.

Turning to `Cc1c(Cl)cc([C@H]2[C@H](C(=O)Nc3ccc(Cl)c(C(=O)NC4CC(F)(F)C4)c3)C2(Cl)Cl)cc1Cl` (relative stereo) [Molecule F48, trans-2-Chloro-5-(2,2-dichloro-3-(3,5-dichloro-4-methylphenyl)cyclopropanecarboxamido)-N-(3,3-difluorocyclobutyl)benzamide], the mortality at 50 µg/cm2 in series [1] (setting [4]) and in series [2] (setting [4]) was 50 to 100% in each case. In series [3], the “YFM % Control (or Mortality) rating” value is recorded as “A (80-100)”.

Take `N#CC1(NC(=O)c2cc(NC(=O)[C@H]3[C@H](c4cc(Cl)cc(Cl)c4)C3(Br)Br)ccc2Cl)CC1` (relative stereo) [PF30, trans-2-Chloro-N-(1-cyanocyclopropyl)-5-(2,2-dibromo-3-(3,5-dichlorophenyl)-cyclopropane-1-carboxamido)benzamide]: the mortality at 50 µg/cm2 in series [1] (setting [4]) and in series [2] (setting [4]) was 50 to 100% each time. In addition, the “YFM % Control (or Mortality) rating” value in series [3] is given as “D (No activity noticed in this bioassay)”.

For the compound `CN(C(=O)c1cc(NC(=O)[C@H]2[C@H](c3ccc(Cl)c(Cl)c3)C2(Cl)Cl)ccc1Cl)C1(C#N)CC1` (relative stereo) [PF22, trans-2-Chloro-N-(1-cyanocyclopropyl)-5-(2,2-dichloro-3-(3,4-dichloro-phenyl)cyclopropane-1-carboxamido)-N-methylbenzamide], the mortality at 50 µg/cm2 in series [1] (setting [4]) and in series [2] (setting [4]) was 50 to 100% each time. Further, the “YFM % Control (or Mortality) rating” value in series [3] is reported as “B (More than 0-Less than 80)”.

On to `CC1(NC(=O)c2cc(NC(=O)[C@H]3[C@H](c4cc(Cl)cc(Cl)c4)C3(Cl)Cl)ccc2Cl)CC1` (relative stereo) [PF32, trans-2-Chloro-5-(2,2-dichloro-3-(3,5-dichloro-phenyl)cyclopropanecarboxamido)-N-(1-methylcyclopropyl)benzamide], for which the mortality at 50 µg/cm2 in series [1] (setting [4]) and in series [2] (setting [4]) was 50 to 100% throughout. Also, in series [3], the “YFM % Control (or Mortality) rating” value is “A (80-100)”.

Take `O=C(NC1COC1)c1cc(NC(=O)[C@H]2[C@H](c3cc(Cl)cc(Cl)c3)C2(Cl)Cl)ccc1Cl` (relative stereo) [Molecule F53, trans-2-Chloro-5-(2,2-dichloro-3-(3,5-dichlorophenyl)cyclopropanecarboxamido)-N-(oxetan-3-yl)benzamide]: the mortality at 50 µg/cm2 in series [1] (setting [4]) and in series [2] (setting [4]) was 50 to 100% throughout. Besides, the “YFM % Control (or Mortality) rating” value in series [3] is given as “A (80-100)”.

For `N#CC1(NC(=O)c2cc(NC(=O)[C@H]3[C@H](c4cc(F)c(Br)c(F)c4)C3(Cl)Cl)ccc2Cl)CC1` (relative stereo) [Molecule F82, trans-5-(3-(4-Bromo-3,5-difluorophenyl)-2,2-dichlorocyclopropane-1-carboxamido)-2-chloro-N-(1-cyanocyclopropyl)benzamide], the mortality at 50 µg/cm2 in series [1] (setting [4]) and in series [2] (setting [4]) was 50 to 100% each time. Further, in series [3], the “YFM % Control (or Mortality) rating” value is recorded as “A (80-100)”.

`N#CC1(NC(=O)c2cc(NC(=O)[C@H]3[C@H](c4cc(Cl)cc(C(F)F)c4)C3(Cl)Cl)ccc2Cl)CC1` (relative stereo) [Molecule F85, trans-2-Chloro-N-(1-cyanocyclopropyl)-5-(2,2-dichloro-3-(3-chloro-5-(difluoro-methyl)phenyl)cyclopropane-1-carboxamido)benzamide]: the mortality at 50 µg/cm2 in series [1] (setting [4]) and in series [2] (setting [4]) was 50 to 100% each time. Further, the “YFM % Control (or Mortality) rating” value in series [3] was “A (80-100)”.

Consider `COCC(=O)N1CC(NC(=O)c2cc(NC(=O)[C@H]3[C@H](c4cc(Cl)cc(Cl)c4)C3(Cl)Cl)ccc2Cl)C1` (relative stereo) [PF14, trans-2-Chloro-5-(2,2-dichloro-3-(3,5-dichlorophenyl)cyclopropane-1-carboxamido)-N-(1-(2-methoxyacetyl)azetidin-3-yl)benzamide], for which the mortality at 50 µg/cm2 in series [1] (setting [4]) and in series [2] (setting [4]) was 50 to 100% each time. The “YFM % Control (or Mortality) rating” value in series [3] is reported as “A (80-100)”.

On to `N#CC1(NC(=O)c2cc(NC(=O)[C@H]3[C@H](c4cc(F)cc(Cl)c4)C3(Cl)Cl)ccc2Cl)CC1` (relative stereo) [PF1, trans-2-Chloro-N-(1-cyanocyclopropyl)-5-(2,2-dichloro-3-(3-chloro-5-fluorophenyl)cyclopropane-1-carboxamido)benzamide], for which the mortality at 50 µg/cm2 in series [1] (setting [4]) and in series [2] (setting [4]) was 50 to 100% each time. Further, in series [3], the “YFM % Control (or Mortality) rating” value was “A (80-100)”.

For `CCN1OC[C@@H](NC(=O)c2cc(NC(=O)C3C(c4cc(Cl)cc(Cl)c4)C3(Cl)Cl)ccc2Cl)C1=O` (stereo partly drawn) [PF45, trans-2-Chloro-5-(2,2-dichloro-3-(3,5-dichlorophenyl)cyclopropane-1-carbox-amido)-N—((R)-2-ethyl-3-oxoisoxazolidin-4-yl)benzamide], the mortality at 50 µg/cm2 in series [1] (setting [4]) and in series [2] (setting [4]) was 50 to 100% throughout. Further, the “YFM % Control (or Mortality) rating” value in series [3] is on record as “A (80-100)”.

As to `N#CC1(NC(=O)c2cc(NC(=O)C3C(c4cc(Cl)cc(Cl)c4)C3(Cl)Br)ccc2Cl)CC1` (stereo not drawn) [Molecule F72], the mortality at 50 µg/cm2 in series [1] and in series [2] was 50 to 100% in each case. Moreover, the “YFM % Control (or Mortality) rating” value in series [3] is on record as “D (No activity noticed in this bioassay)”.

As for `O=C(NC1CC[S+]([O-])C1)c1cc(NC(=O)[C@H]2[C@H](c3cc(Cl)c(Cl)c(Cl)c3)C2(Cl)Cl)ccc1Cl` (relative stereo) [PF18, trans-2-chloro-5-(2,2-dichloro-3-(3,4,5-trichloro-phenyl)cyclopropane-1-carboxamido)-N-(1-oxidotetrahydrothiophen-3-yl)-benzamide], the mortality at 50 µg/cm2 in series [1] (setting [4]) and in series [2] (setting [4]) was 50 to 100% throughout. In addition, the “YFM % Control (or Mortality) rating” value in series [3] is listed as “A (80-100)”.

Take `N#CC1(NC(=O)c2cc(NC(=O)[C@H]3[C@H](c4cc(Cl)cc(Cl)c4)C3(Cl)Cl)ccc2Cl)CC1` [Molecule F75, 2-Chloro-N-(1-cyanocyclopropyl)-5-((1R,3R)-2,2-dichloro-3-(3,5-dichloro-phenyl)cyclopropane-1-carboxamido)benzamide]: the “YFM % Control (or Mortality) rating” value in series [3] was “A (80-100)”.

With `O=C(NC1CS(=O)(=O)C1)c1cc(NC(=O)[C@H]2[C@H](c3cc(Cl)c(Cl)c(Cl)c3)C2(Cl)Cl)ccc1Cl` (relative stereo) [Molecule F58, trans-2-chloro-5-(2,2-dichloro-3-(3,4,5-trichlorophenyl)cyclopropanecarboxamido)-N-(1,1-dioxidothietan-3-yl)benzamide], the mortality at 50 µg/cm2 in series [1] (setting [4]) and in series [2] (setting [4]) was 50 to 100% throughout.

As for `O=C(NN1CCOCC1)c1cc(NC(=O)[C@H]2[C@H](c3cc(Cl)cc(Cl)c3)C2(Cl)Cl)ccc1Cl` (relative stereo) [Molecule F52, trans-2-Chloro-5-(2,2-dichloro-3-(3,5-dichlorophenyl)cyclopropanecarboxamido)-N-morpholinobenzamide], the mortality at 50 µg/cm2 in series [1] (setting [4]) and in series [2] (setting [4]) was 50 to 100% each time.

Regarding `N#CC1(NC(=O)c2cc(NC(=O)[C@H]3[C@H](c4ccc(F)c(Cl)c4)C3(Cl)Cl)ccc2Cl)CC1` (relative stereo) [PF3, trans-2-Chloro-N-(1-cyanocyclopropyl)-5-(2,2-dichloro-3-(3-chloro-4-fluorophenyl)cyclopropane-1-carboxamido)benzamide], the mortality at 50 µg/cm2 in series [1] (setting [4]) and in series [2] (setting [4]) was 50 to 100% throughout.

`O=C(NC1CNC1)c1cc(NC(=O)[C@H]2[C@H](c3cc(Cl)cc(Cl)c3)C2(Cl)Cl)ccc1Cl` (relative stereo) [Molecule F59, trans-N-(azetidin-3-yl)-2-chloro-5-(2,2-dichloro-3-(3,5-dichlorophenyl)cyclopropanecarboxamido) benzamide]: the mortality at 50 µg/cm2 in series [1] (setting [4]) and in series [2] (setting [4]) was 50 to 100% throughout.
